According to article PMC4925669, “Phytochemicals Mediate the Expression and Activity of OCTN2 as Activators of the PPARγ/RXRα Pathway” (Frontiers in Pharmacology, 2016):

Biological target: T1, PPARγ (Homo sapiens, UniProt P37231)
T1 construct: gene PPARG; pcDNA3.1-PPARγ; with RXRα
T1 sequence (P37231 1-505): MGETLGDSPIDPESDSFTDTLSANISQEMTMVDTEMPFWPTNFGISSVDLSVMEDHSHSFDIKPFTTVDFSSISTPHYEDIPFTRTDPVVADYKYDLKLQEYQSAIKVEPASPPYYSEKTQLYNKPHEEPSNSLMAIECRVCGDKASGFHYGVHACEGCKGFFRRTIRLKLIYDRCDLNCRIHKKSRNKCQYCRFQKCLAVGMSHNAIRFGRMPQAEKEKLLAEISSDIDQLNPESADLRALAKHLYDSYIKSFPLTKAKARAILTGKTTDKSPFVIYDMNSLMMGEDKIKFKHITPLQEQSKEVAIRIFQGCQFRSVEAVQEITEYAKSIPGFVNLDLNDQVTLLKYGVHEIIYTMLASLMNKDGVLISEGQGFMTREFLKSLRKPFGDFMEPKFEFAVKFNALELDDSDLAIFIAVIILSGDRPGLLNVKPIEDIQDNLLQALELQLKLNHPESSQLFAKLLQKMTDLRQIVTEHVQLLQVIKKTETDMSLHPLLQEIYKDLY
T1 sequence (P19793 1-462 partner): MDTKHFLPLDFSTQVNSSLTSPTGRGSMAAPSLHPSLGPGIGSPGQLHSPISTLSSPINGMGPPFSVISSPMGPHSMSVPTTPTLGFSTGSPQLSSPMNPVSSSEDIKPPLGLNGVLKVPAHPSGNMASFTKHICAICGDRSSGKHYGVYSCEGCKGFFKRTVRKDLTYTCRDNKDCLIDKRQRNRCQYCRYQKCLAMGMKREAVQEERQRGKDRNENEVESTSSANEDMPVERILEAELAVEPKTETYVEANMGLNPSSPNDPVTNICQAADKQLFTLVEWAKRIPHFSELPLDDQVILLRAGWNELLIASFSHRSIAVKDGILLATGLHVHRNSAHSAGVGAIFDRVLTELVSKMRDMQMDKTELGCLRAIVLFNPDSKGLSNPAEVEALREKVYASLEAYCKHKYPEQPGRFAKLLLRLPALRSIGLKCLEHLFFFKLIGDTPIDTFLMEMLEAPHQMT
Assay: PPRE/OCTN2 dual-luciferase transactivation assay in COS-7 cells transfected with PPARγ/RXRα, blocked by GW9662
Format: cell-based

Structure (SMILES): O=c1c(O)c(-c2ccc(O)cc2)oc2cc(O)cc(O)c12 [Kaempferol]
- Relative RFU fold change (% of blank): 189.89 ± 5.98 % of blank
